# Values joined by “and” are separate entries in the source; they are usually repeats but may differ in a detail not shown here. Equal values may be shown once.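 96-well plates; 48 h exposure; 5 concentrations. Endpoints by linear interpolation between flanking doses. Not reached: highest tested concentration assigned. Abbreviation: GI50, concentration required for 50% inhibition of growth. TGI marks complete inhibition of growth.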
# Assays:
# Assay in all cases: NCI-60 cell line screen, 48 h
# A498 renal = system: A498 renal
# ACHN renal = system: ACHN renal
# HCT-116 colon = system: HCT-116 colon
# HCT-15 colon = system: HCT-15 colon
# MDA-MB-231 breast = system: MDA-MB-231 breast
# NCI-H460 lung = system: NCI-H460 lung
# NCI/ADR-RES ovarian = system: NCI/ADR-RES ovarian
# OVCAR-4 ovarian = system: OVCAR-4 ovarian
# SK-MEL-5 melanoma = system: SK-MEL-5 melanoma
# TK-10 renal = system: TK-10 renal
SMILES,GI50 (A498 renal),TGI (A498 renal),GI50 (ACHN renal),TGI (ACHN renal),GI50 (HCT-116 colon),TGI (HCT-116 colon),GI50 (HCT-15 colon),TGI (HCT-15 colon),GI50 (MDA-MB-231 breast),TGI (MDA-MB-231 breast),GI50 (NCI-H460 lung),TGI (NCI-H460 lung),GI50 (NCI/ADR-RES ovarian),TGI (NCI/ADR-RES ovarian),GI50 (OVCAR-4 ovarian),TGI (OVCAR-4 ovarian),GI50 (SK-MEL-5 melanoma),TGI (SK-MEL-5 melanoma),GI50 (TK-10 renal),TGI (TK-10 renal)
Cc1cccc2c1NC(=O)[C@@H](NC(=O)[C@H](CCC(F)(F)F)[C@H](CCC(F)(F)F)C(N)=O)N=C2c1cccc(F)c1,36.6 µM,> 100 µM,45.1 µM,> 100 µM,51.2 µM,> 100 µM,> 100 µM,> 100 µM,18.2 µM,59.1 µM,31.3 µM,> 100 µM,26.3 µM,> 100 µM,22.4 µM,61.9 µM,> 100 µM,> 100 µM,34.7 µM,> 100 µM
CCOC(=O)Nc1ccc2c3c(cccc13)-c1ccccc1-2,4.68 µM,> 100 µM,9.73 µM,> 100 µM,4.22 µM,> 100 µM,4.32 µM,> 100 µM,2.58 µM,> 100 µM,3.99 µM,> 100 µM,4.32 µM,> 100 µM,> 100 µM,> 100 µM,3.96 µM,> 100 µM,> 100 µM,> 100 µM
CC12OC(C(=O)C13CC3)C1C(=O)c3cccc(O)c3C(=O)C12 (stereo not given),16.3 µM,30.4 µM,2.95 µM,> 39.1 µM,4.31 µM,6.42 µM,9.82 µM,> 54.8 µM,2.43 µM,16.3 µM,18.6 µM,68.3 µM,6.9 µM,25.3 µM,3.16 µM,12 µM,6.79 µM,> 100 µM,8.82 µM,30.6 µM
N#CC1(C#N)C2C=CC(C3CC=CC32)C1(C#N)C#N (stereo not given),–,16.9 µM,8.44 µM,7.09 µM and 15.3 µM,7.85 µM,3.4 µM and 15.7 µM,13.2 µM,4.17 µM and 35.9 µM,–,17.2 µM,–,> 50 µM,–,33.4 µM,9.34 µM,9.16 µM and 18.7 µM,8.61 µM,15.6 µM,–,3.61 µM
Nc1ncnc2occ(-c3ccc(NC(=O)Nc4cc(C(F)(F)F)ccc4F)cc3)c12,1.09 µM and 0.506 µM,6.14 µM and 2.69 µM,4.17 µM and 2.9 µM,18.8 µM and 16.4 µM,5.2 µM and 1.51 µM,16.8 µM and 9.61 µM,6.31 µM and 3.97 µM,21.7 µM and 13.5 µM,7.93 µM and 3.8 µM,23.1 µM and 12.4 µM,4.86 µM and 2.96 µM,11.2 µM and 6.94 µM,5.44 µM and 3.09 µM,20.2 µM and 13.3 µM,4.2 µM and 2.36 µM,17.1 µM and 14.6 µM,3.56 µM and 3.57 µM,7.02 µM and 6.93 µM,4.78 µM and 1.6 µM,14.3 µM and 8.76 µM
CN(CCNc1ccc(C(=N)N)cc1)c1ccc(C(=N)N)cc1,4.43 µM,44.7 µM,> 100 µM,> 100 µM,> 100 µM,> 100 µM,31.2 µM,> 100 µM,> 100 µM,> 100 µM,4.74 µM,> 100 µM,63.6 µM,> 100 µM,66 µM,> 100 µM,13.2 µM,28.3 µM,53.4 µM,> 100 µM
